Assay [1] deals with Kleidermotte Tineola bisselliella Hum. The experiment in a line: Moth-proofing test (feeding protection, SNV 195901) on wool treated in the exhaust bath, Example 4. The format is in vivo. The note with it: 15 larvae, 14 days, 28°C, 65 % r.h. How it is done: (§1) Von den zu prüfenden Verbindungen Nr. 101, 102, 201, 203, 205, 301 und 302 werden Stammlösungen durch Auflösung von jeweils 50 mg der Wirksubstanz in 25 ml Aethylenglykolmonoäthyläther bereitet.
(§2) 3 g schwere, gut vorgenetzte Wollgewebstücke werden in eine 30°C warme wässrige Flotte eingebracht, die folgende Bestandteile enthält: • x ppm, bezogen auf das Wollgewicht, der jeweils zu prüfenden Verbindung (eine entsprechende Menge der oben beschriebenen Stammlösung wird der Flotte zugegeben). • 1 X, bezogen auf das Wollgewicht, 80%-ige Essigsäure. • 4 X, bezogen auf das Wollgewicht, Ammoniumsulfat. • 0,5 g/1 Flotte eines Netz- und Dispergiermittels.
(§3) Die Temperatur der Flotte wird innerhalb 20 Minuten auf 98°C gesteigert und 60 Minuten bei dieser Temperatur belassen. Nach dem Abkühlen werden die Muster einzeln mit Wasser gespült und bei Raumtemperatur getrocknet.
(§4) Die mit den zu prüfenden Verbindungen ausgerüsteten trockenen Wollmuster werden der Mottenechtheitsprüfung (Frassschutz gegen die Kleidermotte Tineola bisselliella Hum.) sowie der Echtheitsprüfung gegen Larven des Pelzkäfers (Attagenus piceus Oliv.) und Teppichkäfers (Anthrenus flavipes var. seminiveus) gemäss der Vorschrift des Schweizer Normenverbandes SNV 195901 unterworfen.
(§5) Es werden jeweils Larven von Tineola und Larven von Anthrenus und 6 bis 7 Wochen alte Larven von Attagenus zur Prüfung verwendet.
(§6) Aus dem behandelten Wollflanellmuster werden Stücke gleicher Grösse ausgeschnitten und 14 Tage lang bei konstanter Temperatur (28°C) und konstanter relativer Luftfeuchtigkeit (65 %) dem Angriff (Frass) von je 15 Larven des entsprechenden Schädlings ausgesetzt. Die Beurteilung für alle 3 Schädlinge erfolgt nach dem Gewichtsverlust des Wollmusters.
(§7) .Aus der nachfolgenden Tabelle 1 ist für die geprüften Verbindungen die jeweilige Einsatzkonzentration (in ppm, bezogen auf das Wollgewicht) und der durch den Schädlingsfrass verursachte Gewichtsverlust (in mg) zu entnehmen: […]

The subject of assay [2] is Larven des Pelzkäfers (Attagenus piceus Oliv.). As to the kind of experiment: Fastness test against fur beetle larvae (SNV 195901) on wool treated in the exhaust bath, Example 4. The format is in vivo. The note with it: 15 larvae, 14 days, 28°C, 65 % r.h. How it is done:
as §1, §2, §3, §4, §5, §6, §7

Assay [3] relates to Larven des Teppichkäfers (Anthrenus flavipes var. seminiveus). As to the kind of experiment: Fastness test against carpet beetle larvae (SNV 195901) on wool treated in the exhaust bath, Example 4. The class given is in vivo. The note with it: 15 larvae, 14 days, 28°C, 65 % r.h. How it is done:
as §1, §2, §3, §4, §5, §6, §7

For assay [4], the system named is Larven des Pelzkäfers (Attagenus piceus Oliv.). The experiment in a line: Fastness test against fur beetle larvae (SNV 195901) on wool treated by pad (Foulard) application, Example 5. The format is in vivo. The note with it: 15 larvae, 14 days, 28°C, 65 % r.h.
Excerpt: as §4, §5, §6
(§8) 12,5 ml der jeweiligen, die zu prüfenden Verbindungen Nr. 101, 102, 201, 203, 205, 301 und 302 enthaltenden Stammlösung gemäss Beispiel 4 werden mit Aethylenglykolmonoäthyläther, der 1 g/1 eines Netz- und Dispergiermittels enthält, verdünnt. Die'Verdünnung erfolgt in der Weise, dass in der erhaltenen Foulardflotte die Konzentration der jeweils zu prüfenden Verbindung so eingestellt ist, dass auf dem Wollgewebe nach dem foulardieren x ppm des jeweiligen Wirkstoffes vorhanden sind (siehe Tabelle 2). Jeweils 3 ml der erhaltenen Lösung werden in eine Kristallisierschale gegeben. Darin wird eine geköderte Rondelle aus Wollgewebe mit Hilfe einer Pinzette ca. 3 Sekunden lang benetzt. Die feuchten Rondellen werden dann zwischen 2 Aluminiumfolien foulardiert, und zwar derart, dass die abgequetschten Rondellen je 100 X, bezogen auf ihr Gewicht, an Flotte aufgenommen haben. Die feuchten Rondellen werden an der Luft getrocknet und den gleichen biologischen Prüfungen unterworfen, die in Beispiel 4 beschrieben sind. Die Ergebnisse sind in der nachfolgenden Tabelle 2 zusammengefassst: […]

In assay [5] the test system is Larven des Teppichkäfers (Anthrenus flavipes var. seminiveus). The experiment in a line: Fastness test against carpet beetle larvae (SNV 195901) on wool treated by pad (Foulard) application, Example 5. The note with it: 15 larvae, 14 days, 28°C, 65 % r.h. The format is in vivo.
Excerpt: as §4, §5, §6, §8

The subject of assay [6] is Kleidermotte Tineola bisselliella Hum. As to the kind of experiment: Moth-proofing test (SNV 195901) on wool treated by pad (Foulard) application, Example 5. The note with it: 15 larvae, 14 days, 28°C, 65 % r.h. The format is in vivo.
Excerpt: as §4, §5, §6, §8

Assay [7] relates to die in Beispiel 4 genannten keratinfressenden Schädlinge. As to the kind of experiment: Protection of wool articles treated in a dry-cleaning liquor, Example 6. The class given is in vivo, Tineola bisselliella, Attagenus piceus, Anthrenus flavipes. The note with it: 10%-ige solution diluted 1:200 by volume in dry-cleaning solvent; wool spun to ca. 100 % solvent content, dried. An excerpt:
Beispiel 6: Es wird jeweils eine 10%-ige Lösung der Verbindungen Nr. 101, 201, 202 und 301 in Aethylenglykolmonomethyläther hergestellt. Ein Volumenteil dieser Lösung wird mit 200 Volumen- 'teilen eines zur Trockenreinigung geeigneten Lösungsmittels, z.B. einer passenden Benzinfraktion oder Perchloräthylen, verdünnt. Gewünschtenfalls können noch reinigungsfördernde Zusätze beigefügt werden. Wollartikel werden nun wie üblich in diesen Reinigungsflüssigkeiten behandelt und anschliessend auf einen Lösungsmittelgehalt von ca. 100 % des Wollgewichtes abgeschleudert.

For assay [8] the test system is unchanged. As to the kind of experiment: Protection of wool articles treated by spray application, Example 7. The class given is in vivo, Tineola bisselliella, Attagenus piceus, Anthrenus flavipes. The note with it: 0,5%-ige solution sprayed, 2 x 15 g/m^2; about 400 ppm active on the material. An excerpt:
Beispiel 7: Es wird jeweils eine 0,5%-ige Lösung der Verbindungen Nr. 101, 201, 202 und 301 in Methylenchlorid, Trichloräthylen oder einer tiefsiedenden Benzinfraktion angesetzt. Wollartikel werden mit Hilfe einer üblichen Sprüheinrichtung mit diesen Lösungen besprüht, so dass 2 x 15 g/m^2 an Wirkstofflösung appliziert werden. Bei einem Ausnützungseffekt des Aerosols von 30 % befinden sich dann etwa 400 ppm der jeweiligen Wirkstoffverbindung auf dem Material.

Setting [9] is: Einsatzkonzentration 7,5 ppm on wool weight.
The mark [10] stands for this setting: Einsatzkonzentration 125 ppm on wool weight.
[11] abbreviates: Einsatzkonzentration 7,5 ppm on wool.
[12] abbreviates: Einsatzkonzentration 125 ppm on wool.
Where [13] appears, read: Einsatzkonzentration 30 ppm on wool weight.
Where [14] appears, read: Einsatzkonzentration 15 ppm on wool.
Setting [15] is: Einsatzkonzentration 300 ppm on wool weight.
[16] abbreviates: Einsatzkonzentration 30 ppm on wool.
The mark [17] stands for this setting: Einsatzkonzentration 250 ppm on wool.

Regarding `CC1(C)[C@@H](C=C(Cl)Cl)[C@@H]1C(=O)OC(C#N)c1ccc(F)c(Oc2ccccc2)c1` (relative stereo) [Verbindung 302, (+)-trans-2,2-Dimethyl-3-(2,2-dichlorvinyl)-cyclopropancarbonsäure-3-phenoxy-4-fluor-a-cyanobenzylester], the Gewichtsverlust in assay [1] (setting [9]) was 0,4 mg; in assay [2] (setting [9]), 51,4 mg; in assay [3] (setting [10]), 48,0 mg; in assay [4] (setting [11]), 9,3 mg; in assay [5] (setting [12]), 16,3 mg.

Take `CC1(C)[C@@H](C=C(Cl)Cl)[C@@H]1C(=O)OCc1cccc(Oc2ccccc2)c1` (relative stereo) [Verbindung 203, (+)-trans-2,2-Dimethyl-3-(2,2-dichlorvinyl)-cyclopropancarbonsäure-3-phenoxybenzylester]: the Gewichtsverlust in assay [1] (setting [9]) is recorded as 26,9 mg; in assay [2] (setting [13]), 54,2 mg; in assay [3] (setting [10]) it was 68,3 mg; in assay [6] (setting [11]), 17,4 mg; in assay [4] (setting [14]) it was 39,3 mg; in assay [5] (setting [12]) it was 28,1 mg.

Take `CC#CC(OC(=O)[C@H]1[C@H](C=C(Cl)Cl)C1(C)C)c1cccc(Oc2ccccc2)c1` (relative stereo) [Verbindung 102, (+)-trans-2,2-Dimethyl-3-(2,2-dichlorvinyl)-cyclopropancarbonsäure-3-phenoxy-a-propin-l-yl-benzylester]: the Gewichtsverlust in assay [1] (setting [13]) was 2,6 mg; in assay [2] (setting [13]) it was 43,4 mg; in assay [3] (setting [15]), 51,7 mg; in assay [6] (setting [16]), 4,4 mg; in assay [4] (setting [16]) it was 15,3 mg; in assay [5] (setting [17]), 27,1 mg.

With `CC#CC(OC(=O)C1C(C=C(Cl)Cl)C1(C)C)c1cccc(Oc2ccccc2)c1` (mixture of isomers) [Verbindung 101, (±)-cis-2,2-Dimethyl-3-(2,2-dichlorvinyl)-cyclopropancarbonsäure-3-phenoxy-α-propin-1-yl-benzylester], the Gewichtsverlust was 1,2 mg in assay [1] (setting [13]); 9,0 mg in assay [2] (setting [13]); 9,2 mg in assay [3] (setting [15]); 1,0 mg in assay [6] (setting [16]); 2,0 mg in assay [4] (setting [16]); 1,1 mg in assay [5] (setting [17]). The “Schutz gegen keratinfressende Schädlinge” value is on record as “hervorragend gegen die in Beispiel 4 genannten keratinfressenden Schädlinge geschützt” in assay [7] and “gegen die in Beispiel 4 genannten keratinfressenden Schädlinge geschützt” in assay [8].

As for `CC1(C)C(C=C(Cl)Cl)C1C(=O)OCc1cccc(Oc2ccccc2)c1` (mixture of isomers) [Verbindung 205, (+)-cis, trans-2,2-Dimethyl-3-(2,2-dichlorvinyl)-cyclopropancarbonsäure-3-phenoxybenzylester], the Gewichtsverlust in assay [1] (setting [9]) is listed as 5,8 mg; in assay [2] (setting [13]), 14,9 mg; in assay [3] (setting [10]), 29,2 mg; in assay [6] (setting [11]) it was 5,5 mg; in assay [4] (setting [14]) it was 32,5 mg; in assay [5] (setting [12]), 11,0 mg.

As for `CC1(C)C(C=C(Cl)Cl)C1C(=O)OCc1cccc(Oc2ccccc2)c1` (racemic) [Verbindung 201, (+)-cis-2,2-Dimethyl-3-(2,2-dichlorvinyl)-cyclopropancarbonsäure-3-phenoxybenzylester], the Gewichtsverlust in assay [1] (setting [9]) is reported as 1,7 mg; in assay [2] (setting [13]), 4,3 mg; in assay [3] (setting [10]) it was 18,9 mg; in assay [6] (setting [11]), 1,9 mg; in assay [4] (setting [14]) it was 3,7 mg; in assay [5] (setting [12]) it was 1,2 mg. For the same compound, the “Schutz gegen keratinfressende Schädlinge” value in assay [7] is “hervorragend gegen die in Beispiel 4 genannten keratinfressenden Schädlinge geschützt”; in assay [8], “gegen die in Beispiel 4 genannten keratinfressenden Schädlinge geschützt”.

For the compound `CC1(C)C(C=C(Cl)Cl)C1C(=O)OC(C#N)c1ccc(F)c(Oc2ccccc2)c1` (mixture of isomers) [Verbindung 301, (±)-cis-2,2-Dimethyl-3-(2,2-dichlorvinyl)-cyclopropancarbonsäure-3-phenoxy-4-fluor-a-cyanobenzylester], the Gewichtsverlust in assay [1] (setting [9]) is given as 0 mg; in assay [2] (setting [9]), 11,4 mg; in assay [3] (setting [10]), 14,9 mg; in assay [4] (setting [11]), 0,8 mg; in assay [5] (setting [12]), 0,1 mg. Besides, the entries for the “Schutz gegen keratinfressende Schädlinge” value in assay [7] and in assay [8] were “hervorragend gegen die in Beispiel 4 genannten keratinfressenden Schädlinge geschützt” and “gegen die in Beispiel 4 genannten keratinfressenden Schädlinge geschützt”, respectively.

Regarding `CC1(C)C(C=C(Cl)Cl)C1C(=O)OC(C#N)c1cccc(Oc2ccccc2)c1` (mixture of isomers) [Verbindung 202, (±)-cis-2,2-Dimethyl-3-(2,2-dichlorvinyl)-cyclopropancarbonsäure-3-phenoxy-a-cyano-benzylester], the “Schutz gegen keratinfressende Schädlinge” value in assay [7] was “hervorragend gegen die in Beispiel 4 genannten keratinfressenden Schädlinge geschützt”; in assay [8] it was “gegen die in Beispiel 4 genannten keratinfressenden Schädlinge geschützt”.

The values are drawn from patent EP0170611A1, “Process for protecting keratinic material against deterioration by keratin devouring insects” (priority 1984, dated 1986).
